From US20180015080A1, “COMPOSITIONS AND METHODS FOR TREATMENT IN PARKINSON'S DISEASE PATIENTS” (priority 2013, published 2018)

What was measured:
[1] = cited from earlier work
PD patients with LIDS = conditions: patients with idiopathic PD and LIDS, one oral dosage per day, 4 mg/day escalated to 24 mg/day
Source text: Patients with idiopathic PD and LIDS are enrolled in a clinical study. […] The patient population in this study is typical of those patients with LIDS. Upon randomization of patients for receiving study agent or placebo, there are no statistically significant differences in baseline parameters between the 2 groups.
The study consists of 3 phases: a treatment period, a drug taper period, and a follow-up period. Subjects are randomly assigned to receive either a nicotine salt or placebo (pbo). Treatment is with one oral dosage per day containing a nicotine salt or placebo. […]
Safety is assessed by incidences of adverse experiences (AE), clinical laboratory tests, serum cotinine, ECG and vital signs. Impulsive symptoms are assessed using the Jay Modified Minnesota Impulsive Disorders Interview (JayMidi). Withdrawal symptoms are evaluated using the Minnesota Nicotine Withdrawal Scale (MNWS-R).
Efficacy is assessed using the UPDRS (total of Parts II+III+IV), sum of Q32+Q33, Unified Dyskiensia Rating Scale (UDysRS) total scores and subscores, Lang-Fahn Dyskinesia Acitivties of Daily Living Scale (LF-ADL), CGI-C and PGI-C scales, and responder analyses (subjects with >25% improvement from baseline) on UDysRS total score and LF-ADL, and % subjects with any improvement on PGI-C and CGI-C. […]

For `N[C@@H](Cc1ccc(O)c(O)c1)C(=O)O` [Levodopa, L-3,4-dihydroxyphenylalanine (S)-2-amino-3-(3,4-dihydroxyphenyl)propanoic acid], the solubility in water [1] is listed as “slightly soluble”.
In the case of `CN1CCC[C@H]1c1cccnc1` [nicotine, 3-[(2S)-1-methylpyrrolidin-2-yl]pyridine], the “adverse experiences (AE)” value (PD patients with LIDS) is reported as “no unexpected AEs occur” and the “improvement on patient- and physician-rated outcome measures (UPDRS, UDysRS, LF-ADL, CGI-C, PGI-C) compared to pbo” value (PD patients with LIDS; majority of outcome measures) is reported as “trend towards statistically significant improvement”.
